# Measurements: patent US20170189474A1, “ANTIFUNGAL THERAPY FOR THE TREATMENT OF HIRSCHSPRUNG-ASSOCIATED ENTEROCOLITIS” (Cedars-Sinai Medical Center, priority 2014, published 2017)
# System: 129SvEdnrb−/− (KO) mice with colonic aganglionosis
# Assay: Histological enterocolitis scoring after medicated water treatment in murine model of HAEC
# Type: in vivo, mouse
# Conditions: Ednrb−/− (KO) mice, antifungal only in drinking water, vs untreated KO; trend, did not reach significance
# Excerpt: Regular water treated KO mice (KO_H2O) and their wild type littermates (WT_H2O) were used as untreated control. […] The total enterocolitis score of each treatment was compared with KO_H2O by using unpaired two-tailed Student's t-test. Results are shown as Mean±SEM, *P<0.05; **P<0.01. We test antibiotic and antifungal agents and their combinations on the 129sv/Ednrb mouse strain shown to be a model of HAEC. The experimental groups and protocol are described below: Medicated water which contains enrofloxacin (Baytril), metronidazole, vancomycin, natamycin ([…]), fluconazole, and/or […] (Isavuconazole sulfate) are administered to pregnant mice from the time that the pregnancy is noted, through weaning of the pups. In other words, the administration of medicated water to moms are stopped after weaning, and then continued with the weaned pups. Six groups of animals (129sv/Ednrb-null mouse strain, n=5-8 per group) with different treatment are described as below. The dosage was calculated by the concentration of antibiotic and antifungal agents and assuming a mouse taking 5 ml water per day based on published data. Group 1. […] Significant changes in makeup between the samples will be verified by quantitative PCR. […]
row,Structure (SMILES),reduction of mean enterocolitis score
1,"C[C@@H]1C/C=C/C=C/C=C/C=C/[C@H](O[C@@H]2O[C@H](C)[C@@H](O)[C@H](N)[C@@H]2O)C[C@@H]2O[C@](O)(C[C@@H](O)C[C@H]3O[C@@H]3/C=C/C(=O)O1)C[C@H](O)[C@H]2C(=O)O [AFX1, natamycin]",42%
2,"OC(Cn1cncn1)(Cn1cncn1)c1ccc(F)cc1F [AFX2, fluconazole]",34%
